Reference: ChEMBL document CHEMBL4145686, “Discovery of a Potent and Selective Steroidal Glucocorticoid Receptor Antagonist (ORIC-101)” (J Med Chem, 2018)

Tests used:
[1] = target: T1, Androgen receptor (Homo sapiens, UniProt P10275); experiment: Agonist activity at AR (unknown origin) expressed in human LNCaP cells incubated for 20 hrs by luciferase reporter gene assay; format: cell-based
T1 sequence (P10275 whole entry): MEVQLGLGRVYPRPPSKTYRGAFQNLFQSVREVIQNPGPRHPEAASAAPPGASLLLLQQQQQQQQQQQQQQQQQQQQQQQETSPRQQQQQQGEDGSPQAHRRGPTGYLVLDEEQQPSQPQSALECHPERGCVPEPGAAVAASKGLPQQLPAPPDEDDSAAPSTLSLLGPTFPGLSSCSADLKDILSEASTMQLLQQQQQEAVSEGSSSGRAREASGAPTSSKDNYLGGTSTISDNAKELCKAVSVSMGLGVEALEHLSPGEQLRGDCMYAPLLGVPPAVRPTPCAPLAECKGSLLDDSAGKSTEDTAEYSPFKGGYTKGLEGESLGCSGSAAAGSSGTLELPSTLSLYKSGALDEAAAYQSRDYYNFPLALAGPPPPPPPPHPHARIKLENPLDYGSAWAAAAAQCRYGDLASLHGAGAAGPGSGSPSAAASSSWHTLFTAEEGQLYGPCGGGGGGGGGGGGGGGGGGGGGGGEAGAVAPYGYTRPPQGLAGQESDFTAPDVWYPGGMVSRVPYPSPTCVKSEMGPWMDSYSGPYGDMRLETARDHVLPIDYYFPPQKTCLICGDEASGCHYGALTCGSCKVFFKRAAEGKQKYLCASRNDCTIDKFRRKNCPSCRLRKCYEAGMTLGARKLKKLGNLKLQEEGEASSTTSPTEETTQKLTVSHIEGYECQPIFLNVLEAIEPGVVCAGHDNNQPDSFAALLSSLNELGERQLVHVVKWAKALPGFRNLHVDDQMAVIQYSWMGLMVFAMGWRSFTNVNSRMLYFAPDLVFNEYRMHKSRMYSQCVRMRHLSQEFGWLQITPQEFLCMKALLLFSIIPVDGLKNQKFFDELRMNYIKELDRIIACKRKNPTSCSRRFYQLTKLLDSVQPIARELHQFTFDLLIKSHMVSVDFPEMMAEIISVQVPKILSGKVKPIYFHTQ

[2] = target: T2, Glucocorticoid receptor (Homo sapiens, UniProt P04150); experiment: Agonist activity at human GR expressed in CHO-K1 cells incubated for 20 hrs by luciferase reporter gene assay; format: cell-based
T2 sequence (P04150 whole entry): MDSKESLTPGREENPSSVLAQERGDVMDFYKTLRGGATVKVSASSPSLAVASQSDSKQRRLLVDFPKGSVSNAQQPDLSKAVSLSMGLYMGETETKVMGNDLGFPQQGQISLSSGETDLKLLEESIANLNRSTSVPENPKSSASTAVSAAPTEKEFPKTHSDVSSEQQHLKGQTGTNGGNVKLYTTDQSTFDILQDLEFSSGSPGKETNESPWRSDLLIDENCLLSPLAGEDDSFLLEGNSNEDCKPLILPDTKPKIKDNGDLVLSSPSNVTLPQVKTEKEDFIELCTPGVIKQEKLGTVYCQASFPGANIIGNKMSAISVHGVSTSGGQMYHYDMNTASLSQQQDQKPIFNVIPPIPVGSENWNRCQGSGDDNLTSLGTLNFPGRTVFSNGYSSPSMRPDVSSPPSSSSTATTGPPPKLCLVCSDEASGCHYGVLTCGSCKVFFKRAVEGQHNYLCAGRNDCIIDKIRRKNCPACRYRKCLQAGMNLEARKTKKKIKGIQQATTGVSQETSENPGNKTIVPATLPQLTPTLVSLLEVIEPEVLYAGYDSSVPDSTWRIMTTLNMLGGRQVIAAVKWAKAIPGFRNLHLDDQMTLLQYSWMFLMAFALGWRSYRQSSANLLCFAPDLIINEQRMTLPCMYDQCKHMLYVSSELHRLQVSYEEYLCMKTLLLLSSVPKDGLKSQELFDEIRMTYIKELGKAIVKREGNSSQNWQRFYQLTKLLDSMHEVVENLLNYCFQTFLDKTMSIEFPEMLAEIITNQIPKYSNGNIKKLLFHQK

[3] = target: T3, glucocorticoid receptor (GR) (Homo sapiens, UniProt P04150); experiment: Agonist activity at human GR expressed in CHO-K1 cells incubated for 20 hrs by luciferase reporter gene assay relative to dexamethasone; format: cell-based; conditions: CHO-K1 cells expressing human GR
T3 sequence (P04150 whole entry): T2 sequence (P04150 whole entry)

[4] = target: T4, androgen receptor (AR) (Homo sapiens, UniProt P10275); experiment: Agonist activity at AR (unknown origin) expressed in human LNCaP cells incubated for 20 hrs by luciferase reporter gene assay relative to mifepristone; format: cell-based; conditions: human LNCaP cells expressing AR
T4 sequence (P10275 whole entry): T1 sequence (P10275 whole entry)

[5] = target: T2, Glucocorticoid receptor; experiment: Antagonist activity at human GR expressed in CHO-K1 cells assessed as reduction in dexamethasone-induced response incubated for 20 hrs by luciferase reporter gene assay; format: cell-based
[6] = Oral bioavailability in rat at 5 mg/kg; format: ADME, organism-based; conditions: in vivo
[7] = Half life in rat at 0.5 mg/kg, iv; format: ADME, organism-based; conditions: in vivo
[8] = Clearance in rat at 0.5 mg/kg, iv; format: ADME, organism-based; conditions: in vivo
[9] = Volume of distribution at steady state in rat at 0.5 mg/kg, iv; format: ADME, organism-based; conditions: in vivo, read-out: Vdss
[10] = Cmax in rat at 5 mg/kg, po; format: ADME, organism-based; parameters: dose 5 mg/kg, route oral; conditions: in vivo
[11] = AUC in rat at 5 mg/kg, po; format: ADME, organism-based; conditions: in vivo

| Structure (SMILES) | EC50 [1] | EC50 [2] | Emax at 20 h [3] | Emax at 20 h [4] | IC50 [5] | bioavailability [6] | half-life [7] | clearance [8] | Vd [9] | Cmax [10] | AUC [11] |
| --- | --- | --- | --- | --- | --- | --- | --- | --- | --- | --- | --- |
| Cc1cc([C@H]2C[C@@]3(C)[C@@H](CC[C@@]3(O)C#CC(C)(C)C)[C@@H]3CCC4=CC(=O)CCC4=C32)ccc1N(C)C | > 2500 nM | > 2500 nM | 1.2% | 17% | 28 nM |  |  |  |  |  |  |
| CCC#C[C@]1(O)CC[C@H]2[C@@H]3CCC4=CC(=O)CCC4=C3[C@@H](c3ccc(N(C)C)cc3)C[C@@]21C | 30 nM | > 2500 nM | 2.1% | 101% | 8.5 nM |  |  |  |  |  |  |
| COc1ccc([C@H]2C[C@@]3(C)[C@@H](CC[C@@]3(O)C#CC(C)(C)C)[C@@H]3CCC4=CC(=O)CCC4=C32)cc1 | > 2500 nM | > 2500 nM | 1.1% | 9.8% | 16.6 nM |  |  |  |  |  |  |
| CC#C[C@]1(O)CC[C@H]2[C@@H]3CCC4=CC(=O)CCC4=C3[C@@H](c3ccc(C(C)C)cc3)C[C@@]21C | 13 nM | > 2500 nM | 3.1% | 198% | 1.93 nM |  |  |  |  |  |  |
| CCc1ccc([C@H]2C[C@@]3(C)[C@@H](CC[C@@]3(O)C#CC(C)(C)C)[C@@H]3CCC4=CC(=O)CCC4=C32)cc1 | > 2500 nM | > 2500 nM | 1.5% | 20% | 17.5 nM | 0% | 3.4 h | 6.83 mL/min/kg | 1.7 L/kg |  |  |
| CC#C[C@]1(O)CC[C@H]2[C@@H]3CCC4=CC(=O)CCC4=C3[C@@H](CC)C[C@@]21C | > 2500 nM | 57 nM | 36% | 47% | > 5000 nM |  |  |  |  |  |  |
| COC(C)(C)C#C[C@]1(O)CC[C@H]2[C@@H]3CCC4=CC(=O)CC[C@@H]4[C@H]3[C@@H](c3ccc(N(C)C)cc3)C[C@@]21C | > 2500 nM | > 2500 nM | 1.7% | 10.6% | 14.6 nM | 54% | 2.4 h | 83.3 mL/min/kg | 7.2 L/kg | 295 ng/mL | 544 ng·h/mL |
| CC#C[C@]1(O)CC[C@H]2[C@@H]3CCC4=CC(=O)CCC4=C3[C@@H](C3CCCCC3)C[C@@]21C | > 2500 nM | > 2500 nM | 9.3% | 26% | 18.1 nM |  |  |  |  |  |  |
| CC(C)(C)C#C[C@]1(O)CC[C@H]2[C@@H]3CCC4=CC(=O)CCC4=C3[C@@H](c3ccc(N4CCS(=O)(=O)CC4)cc3)C[C@@]21C | > 2500 nM | > 2500 nM | 1.8% | 23% | 16.7 nM |  |  |  |  |  |  |
| CC(C)(C)C#C[C@]1(O)CC[C@H]2[C@@H]3CCC4=CC(=O)CCC4=C3[C@@H](c3ccc(N4CCOCC4)cc3)C[C@@]21C | > 2500 nM | > 2500 nM | 1.5% | 18.7% | 13.3 nM |  |  |  |  |  |  |
| CC(C)(C)C#C[C@]1(O)CC[C@H]2[C@@H]3CCC4=CC(=O)CCC4=C3[C@@H](c3ccc(N4CCCC4)cc3)C[C@@]21C | > 2500 nM | > 2500 nM | 1.2% | 13.3% | 19.5 nM | 0.7% | 3.6 h | 4.67 mL/min/kg | 1.5 L/kg | 21 ng/mL | 167 ng·h/mL |
| CN(C)c1c(F)cc([C@H]2C[C@@]3(C)[C@@H](CC[C@@]3(O)C#CC(C)(C)C)[C@@H]3CCC4=CC(=O)CCC4=C32)cc1F | > 2500 nM | > 2500 nM | 1.3% | 8.8% | 43 nM |  |  |  |  |  |  |
| CN(C)c1cccc([C@H]2C[C@@]3(C)[C@@H](CC[C@@]3(O)C#CC(C)(C)C)[C@@H]3CCC4=CC(=O)CCC4=C32)c1 | > 2500 nM | > 2500 nM | 1.3% | 7.5% | 205 nM |  |  |  |  |  |  |
| CN(C)c1ccc([C@H]2C[C@@]3(C)[C@@H](CC[C@@]3(O)C#CC(F)(F)F)[C@@H]3CCC4=CC(=O)CCC4=C32)cc1 | 54 nM | > 2500 nM | 2.4% | 117% | 11.2 nM |  |  |  |  |  |  |
| CC(C)(C)C#C[C@]1(O)CC[C@H]2[C@@H]3CCC4=CC(=O)CCC4=C3[C@@H](c3ccc(C4(C)COC4)cc3)C[C@@]21C | > 2500 nM | > 2500 nM | 2.2% | 11% | 9.6 nM | 7.2% | 4.4 h | 50 mL/min/kg | 6.7 L/kg | 59 ng/mL | 123 ng·h/mL |
| CC(C)C#C[C@]1(O)CC[C@H]2[C@@H]3CCC4=CC(=O)CCC4=C3[C@@H](c3ccc(N(C)C)cc3)C[C@@]21C | > 2500 nM | > 2500 nM | 1.8% | 50% | 26 nM |  |  |  |  |  |  |
| CN(C)c1cc(F)c([C@H]2C[C@@]3(C)[C@@H](CC[C@@]3(O)C#CC(C)(C)C)[C@@H]3CCC4=CC(=O)CCC4=C32)c(F)c1 | > 2500 nM | > 2500 nM | 1.3% | 11% | 12.4 nM |  |  |  |  |  |  |
| COc1cc([C@H]2C[C@@]3(C)[C@@H](CC[C@@]3(O)C#CC(C)(C)C)[C@@H]3CCC4=CC(=O)CCC4=C32)ccc1N(C)C | > 2500 nM | > 2500 nM | 1% | 5.7% | 48 nM |  |  |  |  |  |  |
| CC(C)c1ccc([C@H]2C[C@@]3(C)[C@@H](CC[C@@]3(O)C#CC(C)(C)C)[C@@H]3CCC4=CC(=O)CCC4=C32)cc1 | > 2500 nM | > 2500 nM | 1.5% | 25% | 16 nM |  |  |  |  |  |  |
| CC#C[C@]1(O)CC[C@H]2[C@@H]3CCC4=CC(=O)CCC4=C3[C@@H](c3ccccc3)C[C@@]21C | > 2500 nM | 17.4 nM | 7% | 27% | 14.2 nM |  |  |  |  |  |  |
| Cc1ccc([C@H]2C[C@@]3(C)[C@@H](CC[C@@]3(O)C#CC(C)(C)C)[C@@H]3CCC4=CC(=O)CCC4=C32)cc1 | > 2500 nM | > 2500 nM | 1.5% | 16% | 16.1 nM |  |  |  |  |  |  |
| CN(C)c1ccc([C@H]2C[C@@]3(C)[C@@H](CC[C@@]3(O)C#CC(C)(C)C)[C@@H]3CCC4=CC(=O)CC[C@@H]4[C@H]32)cc1 | 224 nM | > 2500 nM | 2.2% | 22% | 5.6 nM |  |  |  |  |  |  |
| CC#C[C@]1(O)CC[C@H]2[C@@H]3CCC4=CC(=O)CCC4=C3[C@@H](c3cccc(N(C)C)c3)C[C@@]21C | > 2500 nM | > 2500 nM | 1.5% | 5.8% | 64 nM |  |  |  |  |  |  |
